Laboratory results as given in patent US11400059B2, “Treatment of pain and/or pain related symptoms associated with dysmenorrhea” (ALYRA BIOTECH PTY LTD, priority 2017, dated 2022).

Key:
[1] = test system: mice with intrauterine LPS; test: Facial Grimace Scale 24 hours after final LPS stimulation; format: in vivo, mouse (Balb/C); conditions: LPS in conjunction with amitriptyline or TAK242, 24 hours after final LPS stimulation
Protocol: Group 1 included twelve mice with 20 μl endotoxin-free saline introduced to the uterus on the first day of estrus and the subsequent day over 3 consecutive estrous cycles. Group 2 included twelve mice with LPS (100 μg/kg) instilled in the uterus on the first day of estrus and saline injected on the subsequent day over 3 consecutive estrous cycles. Group 3 included twelve mice with LPS (100 μg/kg) mixed with amitriptyline (20 μl of a 100 μM solution, equivalent to 28 μg/kg) instilled in the uterus on the first day of estrus, and amitriptyline alone instilled on the subsequent day over 3 consecutive estrous cycles. Group 4 included 14 mice with LPS (100 μg/kg) mixed with TAK-242 (20 μl of a 100 μM solution, equivalent to 36 μg/kg) instilled on the first day of estrus and TAK-242 alone instilled on the subsequent day over 3 consecutive estrous cycles.
24 hours following the final LPS stimulation mice were subjected to assessment for the presence or absence of pain. This was assessed using the following tests:
Facial Grimace Scale: Photos of mice in their home cage will be taken, to score their facial Grimace and this was quantified and compared between groups. For further information see: http://www.nature.com/nmeth/journal/v7/n6/full/nmeth.1455.html.

[2] = molecular target: T1, hNOD1 (Homo sapiens, UniProt Q9Y239); test: Human NLR antagonist screening, NF-κB SEAP reporter in HEK293 cells; format: cell-based; conditions: antagonist mode, Ami 1 μM, +C12-iE-DAP 100 ng/mL, No Sample 10, Control− 1
T1 construct: expressed in transfected cells; host or cells: HEK293
T1 sequence (Q9Y239 1-953): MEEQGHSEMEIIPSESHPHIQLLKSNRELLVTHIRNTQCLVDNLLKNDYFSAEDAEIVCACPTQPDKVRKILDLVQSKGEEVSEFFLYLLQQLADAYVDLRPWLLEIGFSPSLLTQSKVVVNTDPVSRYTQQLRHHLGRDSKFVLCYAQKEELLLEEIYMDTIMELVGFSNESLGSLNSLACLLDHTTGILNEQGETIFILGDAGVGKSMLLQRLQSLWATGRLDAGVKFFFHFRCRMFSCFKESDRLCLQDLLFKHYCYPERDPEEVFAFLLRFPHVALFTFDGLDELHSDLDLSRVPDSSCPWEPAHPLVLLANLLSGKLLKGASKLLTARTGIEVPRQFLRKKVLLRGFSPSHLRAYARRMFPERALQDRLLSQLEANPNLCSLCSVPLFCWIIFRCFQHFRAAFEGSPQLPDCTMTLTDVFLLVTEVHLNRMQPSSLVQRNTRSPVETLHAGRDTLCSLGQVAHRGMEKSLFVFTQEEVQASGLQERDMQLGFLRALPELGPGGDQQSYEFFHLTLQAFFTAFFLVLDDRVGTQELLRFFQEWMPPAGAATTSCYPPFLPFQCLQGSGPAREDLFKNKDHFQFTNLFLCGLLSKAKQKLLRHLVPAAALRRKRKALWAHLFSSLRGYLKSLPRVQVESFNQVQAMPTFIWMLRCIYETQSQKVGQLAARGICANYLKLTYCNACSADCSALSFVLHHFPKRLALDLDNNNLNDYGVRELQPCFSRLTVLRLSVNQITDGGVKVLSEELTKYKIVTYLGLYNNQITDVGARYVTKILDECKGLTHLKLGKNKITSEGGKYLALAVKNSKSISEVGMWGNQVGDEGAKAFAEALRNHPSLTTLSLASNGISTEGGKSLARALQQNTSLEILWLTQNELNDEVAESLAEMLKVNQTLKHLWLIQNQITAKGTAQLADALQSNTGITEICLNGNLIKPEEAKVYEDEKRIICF
Protocol: Toll-Like Receptor (TLR), NOD-Like Receptor (NLR) and C-Type Lectin Receptor (CLR) stimulation were tested by assessing NF-κB activation in HEK293 cells expressing a given TLR, NLR or CLR. The activity of the test articles was tested at one concentration and compared to control ligands. These steps were performed in triplicate. hNOD1: C12-iE-DAP at 1 μg/mL Antagonist: 100 ng/mL. In a 96-well plate (200 μL total volume) containing the appropriate cells (50,000-75,000 cells/well), 20 μL of the test article or the positive control ligand was added to the wells. For the antagonist assay, the test article was incubated with the cells, at 37° C. with 5% CO2, for 30 minutes prior to the addition of the positive control ligand to the wells. The media added to the wells was designed for the detection of NF-κB induced SEAP expression. After a 16-24 hr incubation the optical density (OD) was read at 650 nm on a Molecular Devices SpectraMax 340PC absorbance detector. Fold induction (ratio of average induced value to average non-induced value) was determined for each TLR, NOD1, NOD2, Dectin-1a, Dectin-1b.

[3] = molecular target: T2, human Mincle (Homo sapiens, UniProt Q9ULY5); test: Human CLR antagonist screening, NF-κB SEAP reporter in HEK293 cells; format: cell-based; conditions: antagonist mode, Ami 1 μM, +TDB 5 μg/mL, No Sample 6, Control− 1
T2 construct: expressed in transfected cells; host or cells: HEK293
Protocol: Toll-Like Receptor (TLR), NOD-Like Receptor (NLR) and C-Type Lectin Receptor (CLR) stimulation were tested by assessing NF-κB activation in HEK293 cells expressing a given TLR, NLR or CLR. The activity of the test articles was tested at one concentration and compared to control ligands. These steps were performed in triplicate.
hMincle: Trehalose-6,6-dibehenate (TDB) at 10 μg/mL Antagonist: 5 μg/mL.
In a 96-well plate (200 μL total volume) containing the appropriate cells (50,000-75,000 cells/well), 20 μL of the test article or the positive control ligand was added to the wells. For the antagonist assay, the test article was incubated with the cells, at 37° C. with 5% CO2, for 30 minutes prior to the addition of the positive control ligand to the wells. The media added to the wells was designed for the detection of NF-κB induced SEAP expression. After a 16-24 hr incubation the optical density (OD) was read at 650 nm on a Molecular Devices SpectraMax 340PC absorbance detector.

T2 sequence (Q9ULY5 whole entry): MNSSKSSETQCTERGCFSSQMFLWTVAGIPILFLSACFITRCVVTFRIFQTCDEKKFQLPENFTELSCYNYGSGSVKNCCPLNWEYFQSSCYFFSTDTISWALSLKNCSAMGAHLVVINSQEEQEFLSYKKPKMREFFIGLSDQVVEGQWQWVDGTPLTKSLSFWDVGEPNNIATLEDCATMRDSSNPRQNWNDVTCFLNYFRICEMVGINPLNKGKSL

Which Grimace scores [1] does the source give for CN(C)CCC=C1c2ccccc2CCc2ccccc21 [Amitriptyline] here?
Its Grimace scores is “reduced these scores”.

What about the “Fold Induction” value [2] of the same compound?
Its value is “slight inhibitory effect”.

What about the “Fold Induction” value ([2]; listed as Ami) of the same compound?
The value was 9.

And the “Fold Induction” value [3]?
Its value is “slight inhibitory effect”.

What about the “Fold Induction” value ([3]; listed as Ami) of the same compound?
Its value is 5.
